# Biological target: T1, TPβ isoform of the human T Prostanoid receptor (thromboxane receptor, TP) (Homo sapiens, UniProt P21731)
# T1 construct: gene TBXA2R; TPβ isoform, stably over-expressed in HEK 293 cells (HEK.TPβ line)
# T1 sequence (P21731 1-328 limits assumed): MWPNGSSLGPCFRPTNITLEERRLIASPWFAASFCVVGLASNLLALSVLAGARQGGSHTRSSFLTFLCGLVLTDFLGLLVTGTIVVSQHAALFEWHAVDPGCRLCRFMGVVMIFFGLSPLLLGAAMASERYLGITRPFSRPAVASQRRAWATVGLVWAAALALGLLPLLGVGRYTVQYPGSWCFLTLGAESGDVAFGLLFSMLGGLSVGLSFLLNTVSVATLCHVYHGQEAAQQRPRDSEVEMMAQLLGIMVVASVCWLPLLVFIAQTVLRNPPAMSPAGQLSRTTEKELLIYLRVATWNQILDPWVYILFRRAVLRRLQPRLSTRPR
# Assay: antagonism of U46619-stimulated intracellular calcium mobilization in HEK.TPβ cells (also vs 8-iso-PGF2α, IC50 […])
# Type: cell-based
smiles,measurement,value
CC(C)(C)NC(=O)NS(=O)(=O)c1cc(C#N)ccc1Oc1cccc(-c2ccc(OC(F)F)cc2)c1 [NTP42],IC50,8.86 ± 3.07 nM

# — paper PMC7132963, “NTP42, a novel antagonist of the thromboxane receptor, attenuates experimentally induced pulmonary arterial hypertension” (BMC Pulmonary Medicine, 2020)
